Assay results published in patent publication US9815835B2, “Substituted polycyclic carbamolypyridone derivative” (priority 2009, dated 2017).

Columns and labels:
[1] = target: cap-dependent endonuclease (RNP fraction containing PB1•PB2•PA complex) (Influenza A virus, UniProt P15659); assay: biochemical; conditions: RNP from A/WSN/33 virus, capped Cy3/BHQ2 30mer RNA substrate, 60 minutes at room temperature; read-out: CEN IC50
influenza virus = assay: microbe, parasite or virus in culture; assay type: cell-based, influenza virus (MDBK or MDCK cells); conditions: unidentified influenza virus, 72 h, read-out: CPE EC50, effective concentration to achieve 50% CPE inhibition, 3 days incubation, WST-8

`C[C@H](N1CN([C@@H]2c3ccccc3SCc3cccc(F)c32)n2ccc(=O)c(O)c2C1=O)C(F)(F)F` [Example 457] was tested, and the IC50 [1] was 242 nM and the EC50 (influenza virus) was 14 nM.

In the case of `Cc1cccc2c1CSc1ccccc1[C@H]2N1CN([C@H](C)C(F)(F)F)C(=O)c2c(O)c(=O)ccn21` [Example 464], the IC50 [1] is reported as 24 nM and the EC50 (influenza virus) is reported as 14 nM.

In the case of `C[C@@H](N1CN([C@@H]2c3ccccc3SCc3c(C#N)cccc32)n2ccc(=O)c(O)c2C1=O)C(F)(F)F` [Example 476], the IC50 [1] is reported as 31 nM and the EC50 (influenza virus) is reported as 14 nM.

Molecule `CN(C)CCN1CN(C2c3ccccc3CCc3ccccc32)n2ccc(=O)c(O)c2C1=O` [Example 478] has an IC50 [1] of 88 nM and an EC50 (influenza virus) of 129 nM.

In the case of `CC(CN1CCOCC1)N1CN(C2c3ccccc3CCc3ccccc32)n2ccc(=O)c(O)c2C1=O` (centres unmarked) [Example 482], the IC50 [1] is reported as 103 nM and the EC50 (influenza virus) is reported as 31 nM.

With `CC(CN1CCN(C)CC1)N1CN(C2c3ccccc3CSc3ccccc32)n2ccc(=O)c(O)c2C1=O` (centres unmarked) [Example 485] the IC50 [1] was 221 nM and the EC50 (influenza virus) was 424 nM.

With `CC(CN1CCCCC1)N1CN(C2c3ccccc3CCc3ccccc32)n2ccc(=O)c(O)c2C1=O` (centres unmarked) [Example 486] the IC50 [1] was 140 nM and the EC50 (influenza virus) was 72 nM.

For `CC(CN1CCCCC1)N1CN(C2c3ccccc3CSc3ccccc32)n2ccc(=O)c(O)c2C1=O` (centres unmarked) [Example 487], the IC50 [1] was 91 nM and the EC50 (influenza virus) was 26 nM.

`CC(CN1CCSCC1)N1CN(C2c3ccccc3CCc3ccccc32)n2ccc(=O)c(O)c2C1=O` (centres unmarked) [Example 488] was tested, and the IC50 [1] was 151 nM and the EC50 (influenza virus) was 27 nM.

Work on `CC(CN1CCSCC1)N1CN(C2c3ccccc3CSc3ccccc32)n2ccc(=O)c(O)c2C1=O` (centres unmarked) [Example 489] yielded an IC50 [1] of 133 nM and an EC50 (influenza virus) of 14 nM.

With `CCN1C(=O)c2c(O)c(=O)ccn2C(C(c2ccccc2)C2CCCCC2)N1CC` (centres unmarked) [Example 493] the IC50 [1] was 112 nM and the EC50 (influenza virus) was 101 nM.

Work on `COCCN1C(=O)c2c(O)c(=O)ccn2C(C(c2ccccc2)c2ccccc2)N1C` (centres unmarked) [Example 495] yielded an IC50 [1] of 277 nM and an EC50 (influenza virus) of 310 nM.

In the case of `CN1C(=O)c2c(O)c(=O)ccn2C(C(c2ccccc2)c2ccccc2)N1C` (centres unmarked) [Example 496], the IC50 [1] is reported as 170 nM and the EC50 (influenza virus) is reported as 177 nM.

For `CN1C(C(c2ccccc2)c2ccccc2)n2ccc(=O)c(O)c2C(=O)N1CCOc1ccc(F)cc1` (centres unmarked) [Example 497], the IC50 [1] was 215 nM and the EC50 (influenza virus) was 511 nM.

Work on `CCN1C(=O)c2c(O)c(=O)ccn2C(C(c2ccccc2)c2ccccc2)N1CC` (centres unmarked) [Example 498] yielded an IC50 [1] of 161 nM and an EC50 (influenza virus) of 351 nM.

In the case of `CC(C)N1CN(C2c3ccccc3CCc3ccccc32)n2cc(CF)c(=O)c(O)c2C1=O` [Example 508], the IC50 [1] is reported as 36 nM and the EC50 (influenza virus) is reported as 56 nM.

With `CC(C)N1CN(C2c3ccccc3CSc3ccccc32)n2cc(CF)c(=O)c(O)c2C1=O` (centres unmarked) [Example 509] the IC50 [1] was 15 nM and the EC50 (influenza virus) was 14 nM.

In the case of `COCCC1N(C(C)C)C(=O)c2c(O)c(=O)ccn2N1C1c2ccccc2CCc2ccccc21` (centres unmarked) [Example 511], the IC50 [1] is reported as 175 nM and the EC50 (influenza virus) is reported as 15 nM.

For `COCC1N(C(C)C)C(=O)c2c(O)c(=O)ccn2N1C1c2ccccc2CCc2ccccc21` (centres unmarked) [Example 515], the IC50 [1] was 197 nM and the EC50 (influenza virus) was 19 nM.

`CSCCC1N(C(C)C)C(=O)c2c(O)c(=O)ccn2N1C1c2ccccc2CCc2ccccc21` (centres unmarked) [Example 516] showed an IC50 [1] of 39 nM and an EC50 (influenza virus) of 17 nM.

`COC(OC)C1N(C(C)C)C(=O)c2c(O)c(=O)ccn2N1C1c2ccccc2CCc2ccccc21` (centres unmarked) [Example 520] was tested, and the IC50 [1] was 212 nM and the EC50 (influenza virus) was 17 nM.

With `CC(C)N1C(=O)c2c(O)c(=O)ccn2N(C2c3ccccc3CCc3ccccc32)C1CCC(F)(F)F` (centres unmarked) [Example 521] the IC50 [1] was 191 nM and the EC50 (influenza virus) was 15 nM.

Work on `COCCCC1N(C(C)C)C(=O)c2c(O)c(=O)ccn2N1C1c2ccc(Cl)cc2CCc2cc(Cl)ccc21` (centres unmarked) [Example 524] yielded an IC50 [1] of 57 nM and an EC50 (influenza virus) of 26 nM.

In the case of `CC(C)N1C(=O)c2c(O)c(=O)ccn2N(C2c3ccccc3CCc3ccccc32)C1c1ccc(Cl)cc1` (centres unmarked) [Example 527], the IC50 [1] is reported as 127 nM and the EC50 (influenza virus) is reported as 88 nM.

With `CC(C)N1C(=O)c2c(O)c(=O)ccn2N(C2c3ccccc3CCc3ccccc32)C1CN` (centres unmarked) [Example 532] the IC50 [1] was 98 nM and the EC50 (influenza virus) was 75 nM.
